The values that follow come from patent US20240415819A1, “MACROCYCLIC COMPOUNDS AS PROTEASOME SUBUNIT BETA TYPE-5 INHIBITORS” (Lead Discovery Center GmbH, priority 2021, published 2024).

A value given as a limit tells only on which side of the number the result lay.

Assay [1] concerns the target T1, β5 subunit of the human immunoproteasome (IPS) (Homo sapiens, UniProt P28062).
T1 construct: purchased Boston Biochem E-370
Put plainly: β5 inhibition assay, human immunoproteasome (Suc-LLVY-AMC). To be noted: IC50 class, Suc-LLVY-AMC substrate. The format is biochemical. The essentials:
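β5 activity is read as liberated AMC fluorescence (355/460 nm) after 4 h dark reaction at RT with 22.6 μM Suc-LLVY-AMC, stopped by 1 μM bortezomib. Beforehand, 1 nM human IPS and compound sat 10 min at RT in HEPES pH 7.5 buffer containing NaCl, 0.02% SDS and DTT.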

Another assay deals with HT-29 cells. Put plainly: CellTiter-Glo luminescent cell viability assay with HT-29 cells (72h incubation). The following applies: Homo sapiens, HT-29, HT29 cells, read-out: CTG HT29. The format is cell-based, human. The essentials: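 Viability read as CellTiter-Glo luminescence after 72 h compound exposure, with 10 μM staurosporine and DMSO as control wells. Seeding 400 cells per well, compound added 24 h post-plating; IC50 from curve fitting.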

As for `Cc1ccc2cc1CNC(=O)[C@H](CCc1ccccc1)NC(=O)[C@@H](NC(=O)Cc1nc(-c3ccncc3)n[nH]1)CC(=O)N1CCCC(CCO2)C1` (stereo partly drawn) [Compound 329, N-((9S,12S)-5^4-methyl-8,11,14-trioxo-9-phenethyl-4-oxa-7,10-diaza-1(3,1)-piperidina-5(1,3)-benzenacyclotetradecaphane-12-yl)-2-(3-(pyridin-4-yl)-1H-1,2,4-triazol-5-yl)acetamide], the IC50 (in assay [1]; in the assay on HT-29 cells) was less than 100 nM each time.
For `Cc1n[nH]c(CC(=O)N[C@H]2CC(=O)N3CCCC(CCOc4ccc(C)c(c4)CNC(=O)[C@H](CCc4ccccc4)NC2=O)C3)n1` (stereo partly drawn) [Compound 332, 2-(3-methyl-1H-1,2,4-triazol-5-yl)-N-((9S,12S)-5^4-methyl-8,11,14-trioxo-9-phenethyl-4-oxa-7,10-diaza-1(3,1)-piperidina-5(1,3)-benzenacyclotetradecaphane-12-yl)acetamide], the IC50 (in assay [1]; in the assay on HT-29 cells) was less than 100 nM each time.
As for `Cc1ccc2cc1CNC(=O)[C@H](CCc1ccccc1)NC(=O)[C@@H](NC(=O)Cc1ccccc1F)CC(=O)N1CCCC(CCO2)C1` (stereo partly drawn) [Compound 333, 2-(2-fluorophenyl)-N-((9S,12S)-5^4-methyl-8,11,14-trioxo-9-phenethyl-4-oxa-7,10-diaza-1(3,1)-piperidina-5(1,3)-benzenacyclotetradecaphane-12-yl)acetamide], the IC50 (in assay [1]; in the assay with HT-29 cells) was less than 100 nM throughout.
In the case of `Cc1ccc2cc1CNC(=O)[C@H](CCc1ccccc1)NC(=O)[C@@H](NC(=O)CC1=NN(c3ccccc3)C(=O)C1)CC(=O)N1CCCC(CCO2)C1` (stereo partly drawn) [Compound 334, N-((9S,12S)-5^4-methyl-8,11,14-trioxo-9-phenethyl-4-oxa-7,10-diaza-1(3,1)-piperidina-5(1,3)-benzenacyclotetradecaphane-12-yl)-2-(5-oxo-1-phenyl-4,5-dihydro-1H-pyrazol-3-yl)acetamide], the IC50 (in assay [1]; in the assay with HT-29 cells) was less than 100 nM throughout.
`Cc1ccc2cc1CNC(=O)[C@H](CCc1ccccc1)NC(=O)[C@@H](NC(=O)Cc1cc(O)on1)CC(=O)N1CCCC(CCO2)C1` (stereo partly drawn) [Compound 335, 2-(5-hydroxyisoxazol-3-yl)-N-((9S,12S)-5^4-methyl-8,11,14-trioxo-9-phenethyl-4-oxa-7,10-diaza-1(3,1)-piperidina-5(1,3)-benzenacyclotetradecaphane-12-yl)acetamide]: the IC50 (in assay [1]; in the assay on HT-29 cells) was less than 100 nM in each case.
`Cc1ccc2cc1CNC(=O)C(CCc1ccncc1)NC(=O)[C@@H](NC(=O)OCc1ccccc1)CC(=O)N1CCCC(CCO2)C1` (stereo partly drawn) [Compound 336, benzyl ((12S)-5^4-methyl-8,11,14-trioxo-9-(2-(pyridin-4-yl)ethyl)-4-oxa-7,10-diaza-1(3,1)-piperidina-5(1,3)-benzenacyclotetradecaphane-12-yl)carbamate]: the IC50 (in assay [1]; with HT-29 cells) was less than 100 nM throughout.
Consider `Cc1ccc2cc1CNC(=O)[C@H](CCc1ccccc1)NC(=O)[C@@H](NC(=O)OCc1ccccc1)CC(=O)N1CC(C)CC(CCO2)C1` (stereo partly drawn) [Compound 337, benzyl ((9S,12S)-1^5,5^4-dimethyl-8,11,14-trioxo-9-phenethyl-4-oxa-7,10-diaza-1(3,1)-piperidina-5(1,3)-benzenacyclotetradecaphane-12-yl)carbamate], for which the IC50 (in assay [1]; with HT-29 cells) was less than 100 nM throughout.
`CC(=O)N[C@H]1CC(=O)N2CCCC(CCOc3ccc(C)c(c3)CNC(=O)C(CCC3CCN(C(C)=O)CC3)NC1=O)C2` (stereo partly drawn) [Compound 338, N-((12S)-9-(2-(1-acetylpiperidin-4-yl)ethyl)-5^4-methyl-8,11,14-trioxo-4-oxa-7,10-diaza-1(3,1)-piperidina-5(1,3)-benzenacyclotetradecaphane-12-yl)acetamide]: the IC50 (in assay [1]; with HT-29 cells) was less than 100 nM in each case.
For the compound `Cc1ccc2cc1CNC(=O)[C@H](CCc1ccccc1)NC(=O)[C@@H](NC(=O)c1ccc3cc(N)ccc3c1)CC(=O)N1CCCC(CCO2)C1` (stereo partly drawn) [Compound 339, 6-amino-N-((9S,12S)-5^4-methyl-8,11,14-trioxo-9-phenethyl-4-oxa-7,10-diaza-1(3,1)-piperidina-5(1,3)-benzenacyclotetradecaphane-12-yl)-2-naphthamide], the IC50 (in assay [1]; with HT-29 cells) was less than 100 nM each time.
With `Cc1ccc2cc1CNC(=O)[C@H](CCc1ccccc1)NC(=O)[C@@H](NC(=O)Cc1nnc(N)[nH]1)CC(=O)N1CCCC(CCO2)C1` (stereo partly drawn) [Compound 340, 2-(5-amino-1H-1,2,4-triazol-3-yl)-N-((9S,12S)-5^4-methyl-8,11,14-trioxo-9-phenethyl-4-oxa-7,10-diaza-1(3,1)-piperidina-5(1,3)-benzenacyclotetradecaphane-12-yl)acetamide], the IC50 in assay [1] was less than 100 nM; with HT-29 cells it was 100 to 500 nM.
Regarding `CC(=O)c1ccc(CC(=O)N[C@H]2CC(=O)N3CCCC(CCOc4ccc(C)c(c4)CNC(=O)[C@H](CCc4ccccc4)NC2=O)C3)cc1` (stereo partly drawn) [Compound 341, 2-(4-acetylphenyl)-N-((9S,12S)-54-methyl-8,11,14-trioxo-9-phenethyl-4-oxa-7,10-diaza-1(3,1)-piperidina-5(1,3)-benzenacyclotetradecaphane-12-yl)acetamide], the IC50 (in assay [1]; with HT-29 cells) was less than 100 nM in each case.
Consider `Cc1ccc2cc1CNC(=O)C(CCc1ccncc1)NC(=O)[C@@H](NC(=O)Cc1nnc(N)s1)CC(=O)N1CCCC(CCO2)C1` (stereo partly drawn) [Compound 342, 2-(5-amino-1,3,4-thiadiazol-2-yl)-N-((12S)-5^4-methyl-8,11,14-trioxo-9-(2-(pyridin-4-yl)ethyl)-4-oxa-7,10-diaza-1(3,1)-piperidina-5(1,3)-benzenacyclotetradecaphane-12-yl)acetamide], for which the IC50 (in assay [1]; in the assay with HT-29 cells) was less than 100 nM throughout.
`Cc1ccc2cc1CNC(=O)C(CCc1ccncc1)NC(=O)[C@@H](NC(=O)C1(c3ccc(N)cc3)CC1)CC(=O)N1CCCC(CCO2)C1` (stereo partly drawn) [Compound 343, 1-(4-aminophenyl)-N-((12S)-5^4-methyl-8,11,14-trioxo-9-(2-(pyridin-4-yl)ethyl)-4-oxa-7,10-diaza-1(3,1)-piperidina-5(1,3)-benzenacyclotetradecaphane-12-yl)cyclopropane-1-carboxamide]: the IC50 (in assay [1]; with HT-29 cells) was less than 100 nM in each case.
Regarding `Cc1ccc2cc1CNC(=O)C(CCc1ccncc1)NC(=O)[C@@H](NC(=O)Cc1ccc(N)cc1F)CC(=O)N1CCCC(CCO2)C1` (stereo partly drawn) [Compound 344, 2-(4-amino-2-fluorophenyl)-N-((12S)-5^4-methyl-8,11,14-trioxo-9-(2-(pyridin-4-yl)ethyl)-4-oxa-7,10-diaza-1(3,1)-piperidina-5(1,3)-benzenacyclotetradecaphane-12-yl)acetamide], the IC50 (in assay [1]; in the assay with HT-29 cells) was less than 100 nM throughout.
As for `CCOC(C(=O)N[C@H]1CC(=O)N2CCCC(CCOc3ccc(C)c(c3)CNC(=O)[C@H](CCc3ccccc3)NC1=O)C2)c1ccc(N)cc1` (stereo partly drawn) [Compound 345, 2-(4-aminophenyl)-2-ethoxy-N-((9S,12S)-5^4-methyl-8,11,14-trioxo-9-phenethyl-4-oxa-7,10-diaza-1(3,1)-piperidina-5(1,3)-benzenacyclotetradecaphane-12-yl)acetamide], the IC50 (in assay [1]; in the assay on HT-29 cells) was less than 100 nM throughout.
